Experimental findings from patent US5908846A (priority 1993, dated 1999) are described below.

Values after ≈ are worked out from the molar mass of the structure shown. Where only a bound is given, the exact number is not on record here.

Data set [1] is described as follows: In vitro skin permeation (diffusion) study, open Franz diffusion cells, whole abdominal human skin. The conditions noted are these: for Flux, IPM: steady state, IPM solution not saturated, human skin.
Data set [2] in a line: Apparent partition coefficient (P) between octanol and pH 7.4 aqueous buffer at 21° C. The conditions noted are these: octanol / phosphate buffer. Here is the method: (§1) The experimental methods used for these determinations are described below.
The concentration of the compounds in the aqueous phase before and after partitioning was determined by HPLC analysis, and the partition coefficients determined.

The nature of the next data set: in vitro. The conditions noted are these: human.
For data set [3] the following is noted: pH 7.
The next data set in a line: physchem. On the procedure: as §1
The mixtures were placed in an ultrasonic bath for 10 min and then rotated on a mechanical spindle for 24 h and filtered. After rotation for 1 h the pH of the phosphate buffer mixtures was adjusted to 7.0. An aliquot of the filtrates was diluted with water or acetonitrile and analyzed by HPLC.

[4] abbreviates: isopropyl myristate, organic solvent or mixture.
Setting [5] is: phosphate buffer, pH 7, aqueous buffer.

As to 3-Butoxy-morphlne, the “Flux, IPM” value in data set [1] (200 mg/ml) was determined as 8.3 ± 2.2 μg/cm^2 /h.

Consider `CCCCC(=O)Oc1ccc2c3c1O[C@H]1[C@@H](O)C=C[C@H]4[C@@H](C2)N(C)CC[C@@]341` [3-Valeryl-morphine], for which the “Flux, IPM” value in data set [1] (200 mg/ml) was determined as 16.5 ± 2.7 μg/cm^2 /h.

As to `CCCCCC(=O)Oc1ccc2c3c1O[C@H]1[C@@H](OC(=O)CCCCC)C=C[C@H]4[C@@H](C2)N(C)CC[C@@]341` [3,6-Dihexanoyl-morphine, 3,6-dihexanoyl morphine], the “Flux, IPM” value in data set [1] (200 mg/ml) is listed as 11.7 ± 1.2 μg/cm^2 /h. In addition, the logD in data set [2] is over 4. Besides, the Papp in “in vitro” was over 0.0444 ×10⁻⁶ cm/s; in “in vitro” (pH 7), 38.9 ×10⁻⁶ cm/s. Also, the “Flux, Buffer” value in data set [3] came to 1.7 ± 0.2 μg/cm^2 /h. Besides, the solubility at 24 h in “physchem” (setting [4]) was over 200 mg/mL; in “physchem” (setting [5]), 0.02 mg/mL (≈ 0.0415 mM).

As to `CC(=O)Oc1ccc2c3c1O[C@H]1[C@@H](O)C=C[C@H]4[C@@H](C2)N(C)CC[C@@]341` [3-Acetyl-morphine], the “Flux, IPM” value in data set [1] (200 mg/ml) was found to be 11.4 ± 1.8 μg/cm^2 /h.

`CC(C)C(=O)Oc1ccc2c3c1O[C@H]1[C@@H](OC(=O)C(C)C)C=C[C@H]4[C@@H](C2)N(C)CC[C@@]341` [3,6-Diisobutyryl-morphine, 3,6-diisobutyryl morphine]: the logD in data set [2] amounted to 2.6. In addition, the solubility at 24 h in the data set “physchem” (setting [4]) turned out to be 80 mg/mL (≈ 188 mM); in “physchem” (setting [5]), 0.6 mg/mL (≈ 1.41 mM).

`CC(C)C(=O)Oc1ccc2c3c1O[C@H]1[C@@H](O)C=C[C@H]4[C@@H](C2)N(C)CC[C@@]341` [3-Isobutyryl-morphine]: in data set [1] (200 mg/ml), the “Flux, IPM” value turned out to be 27.0 ± 3.3 μg/cm^2 /h.

As to `CCC(=O)Oc1ccc2c3c1O[C@H]1[C@@H](OC(=O)CC)C=C[C@H]4[C@@H](C2)N(C)CC[C@@]341` [3,6-Dipropionyl-morphine, 3,6-dipropionyl morphine], the “Amount penetrated present in the receptor phase as the 6-monoester” value in data set [1] (receptor phase composition after human skin permeation) is recorded as about 50%. In data set [2], the logD was 1.66. In “in vitro” (pH 7), this compound showed a Papp of 0.278 ×10⁻⁶ cm/s. The “Flux, Buffer” value in data set [3] is on record as 2.5 ± 0.5 μg/cm^2 /h. The solubility at 24 h worked out at 41 mg/mL (≈ 103 mM) in “physchem” (setting [4]) and 3.6 mg/mL (≈ 9.06 mM) in the data set “physchem” (setting [5]).

Turning to `CCCCCC(=O)Oc1ccc2c3c1O[C@H]1[C@@H](O)C=C[C@H]4[C@@H](C2)N(C)CC[C@@]341` [3-Hexanoyl-morphine, 3-hexanoyl morphine], the “Flux, IPM” value in data set [1] (125 mg/ml) amounted to 35.6 ± 12.0 μg/cm^2 /h. Moreover, in data set [2], the logD was 2.04. For the same compound, the Papp was over 0.0667 ×10⁻⁶ cm/s in the data set “in vitro” and 3.61 ×10⁻⁶ cm/s in the data set “in vitro” (pH 7). In data set [3], the “Flux, Buffer” value was found to be 25.3 ± 4.2 μg/cm^2 /h. Besides, the solubility at 24 h in “physchem” (setting [4]) was over 150 mg/mL; in “physchem” (setting [5]), 2.6 mg/mL (≈ 6.78 mM).

In the case of `CCC(=O)Oc1ccc2c3c1O[C@H]1[C@@H](O)C=C[C@H]4[C@@H](C2)N(C)CC[C@@]341` [3-Propionyl-morphine, 3-propionyl morphine], the logD in data set [2] is 0.66. The results for the solubility at 24 h in “physchem” (setting [4]) and in “physchem” (setting [5]) were 79 mg/mL (≈ 231 mM) and 21 mg/mL (≈ 61.5 mM), respectively.
